6 molecules from patent publication US6169181A, “Compounds useful to treat retroviral infections” (Pharmacia & Upjohn Company, priority 1998, dated 2001) can be followed below.

In assay [1] the target is T1, HIV-1 protease (Human immunodeficiency virus type 1 group M subtype B, UniProt P04585). In words: biochemical. The settings on record: for PROTEASE % INHIB.: Table II, enzyme HIV-1; for inhibition at 0.123 µM / inhibition at 0.37 µM / inhibition at 1.1 µM / inhibition at 3.3 µM / inhibition at 10 µM / inhibition at 30 µM: read-out: Protease % Inhib. In outline: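 Percent inhibition came from fluorescence of FITC-tagged cleavage product, separated by filtration from uncleaved substrate captured on streptavidin-coated beads. The enzyme (10 μl of 0.1 μM) and compound acted on a biotin/FITC dual-labelled peptide for one hour at room temperature in the dark. The reaction ran in 0.1 M sodium acetate, pH 5.5, with 1.0 M NaCl and 0.05% NP-40.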

The target of assay [2] is T1, HIV-1 protease. Kind of assay: biochemical. In outline: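 Biotinylated, FITC-labelled peptide substrate cleaved in 0.1 M sodium acetate pH 5.5, 1.0 M NaCl, 0.05% NP-40, room temperature. Filtered labelled product read by fluorescence; nonlinear least-squares fit.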
Setting [3] is: Table I, read-out: HIV Protease FITC Assay Ki.

Where two headings read alike, the source gives them in different places. A value given as a limit tells only on which side of the number the result lay.

What is called Ki is the dissociation constant of the complex between target and ligand, obtained from inhibition or displacement. In the case of `CC(C)(C)C(C1=C(O)CC(CCc2ccccc2)(CCc2ccccc2)OC1=O)c1cccc(NS(=O)(=O)c2ccc(N)cn2)c1` (single isomer, unassigned) [Example 355, N-[3-{1(R or S)-(4-Hydroxy-5,6-dihydro-2-oxo-6,6-bis(2-phenylethyl)-2H-pyran-3-yl)-2,2-dimethylpropyl}phenyl]-5-aminopyridine-2-sulfonamide], the “PROTEASE % INHIB.” value is given as below 10% at HIV-1 protease [1] (DOSE 0.123 (unit not given)); below 10% on HIV-1 protease [1] (DOSE 0.370 (unit not given)); below 10% at HIV-1 protease [1] (DOSE 1.100 (unit not given)); 20.72% on HIV-1 protease [1] (DOSE 3.300 (unit not given)); 46.66% at HIV-1 protease [1] (DOSE 10.000 (unit not given)); 67.82% at HIV-1 protease [1] (DOSE 30.000 (unit not given)). On HIV-1 protease [2] (Table II, enzyme HIV-1, read-out: FITC KI), the Ki worked out at 700 nM.

As for `CCCC1CCCCCc2c1oc(=O)c(C(c1cccc(NS(=O)(=O)c3ccccc3)c1)C1CC1)c2O` (stereo not drawn) [Example 1, N-[3-[cyclopropyl(5,6,7,8,9,10-hexahydro-4-hydroxy-2-oxo-10-propyl-2H-cycloocta[b]pyran-3-yl)methyl]phenyl]benzenesulfonamide], the inhibition at 0.123 µM at HIV-1 protease [1] (Table I, Dose 0.123 μM) came to 75.4%. On HIV-1 protease [1] (Table I, Dose 0.370 μM), the inhibition at 0.37 µM was determined as 87.3%. Moreover, the inhibition at 1.1 µM at HIV-1 protease [1] (Table I, Dose 1.100 μM) worked out at 97.1%. Also, the inhibition at 3.3 µM on HIV-1 protease [1] (Table I, Dose 3.300 μM) was 96.8%. In addition, the inhibition at 10 µM at HIV-1 protease [1] (Table I, Dose 10.000 μM) was determined as 99.7%. Besides, on HIV-1 protease [1] (Table I, Dose 30.000 μM), the inhibition at 30 µM stood at 97.4%. Further, the Ki on HIV-1 protease [2] (setting [3]) was 15 nM.

As to `O=c1oc2c(c(O)c1C(c1cccc(CS(=O)(=O)c3ccccc3)c1)C1CC1)CCCCCC2` (stereo not drawn) [Example 10, 3-[Cyclopropyl[3-[(phenylsulfonyl)methyl]phenyl]methyl]-5,6,7,8,9,10-hexahydro-4-hydroxy-2H-Cycloocta[b]pyran-2-one], on HIV-1 protease [1], the inhibition at 0.123 µM came out at 102%, the inhibition at 0.37 µM was 112%, the inhibition at 1.1 µM is 116% and the inhibition at 3.3 µM was found to be 119%. In addition, at HIV-1 protease [1], the inhibition at 10 µM was 129% and the inhibition at 30 µM was determined as 130%. Also, at HIV-1 protease [2] (read-out: HIV Protease FITC Assay Ki), the Ki amounted to 5.71 nM.

As to `N#Cc1ccc(S(=O)(=O)Cc2cccc(C(c3c(O)c4c(oc3=O)CCCCCC4)C3CC3)c2)cc1` (stereo not drawn) [Example 11, 3-[cyclopropyl[3-[(4-cyanophenylsulfonyl)methyl]phenyl]methyl]-5,6,7,8,9,10-hexahydro-4-hydroxy-2H-cycloocta[b]pyran-2-one], the inhibition at 0.123 µM on HIV-1 protease [1] (Table I, Dose 0.123 μM) was determined as 78.9%. Moreover, the inhibition at 0.37 µM on HIV-1 protease [1] (Table I, Dose 0.370 μM) was 95.3%. Further, at HIV-1 protease [1] (Table I, Dose 1.100 μM), the inhibition at 1.1 µM worked out at 100%. The inhibition at 3.3 µM at HIV-1 protease [1] (Table I, Dose 3.300 μM) came out at 95.1%. Further, the inhibition at 10 µM at HIV-1 protease [1] (Table I, Dose 10.000 μM) was determined as 99.7%. The inhibition at 30 µM at HIV-1 protease [1] (Table I, Dose 30.000 μM) was 104%. The inhibitory constant (Ki) on HIV-1 protease [2] (setting [3]) came out at 1.9 nM.

In the case of `O=c1oc2c(c(O)c1C(c1cccc(CS(=O)(=O)c3ccc(F)cc3)c1)C1CC1)CCCCCC2` (stereo not drawn) [Example 12, 3-[cyclopropyl[3-[(4-fluorophenylsulfonyl)methyl]phenyl]methyl]-5,6,7,8,9,10-hexahydro-4-hydroxy-2H-cycloocta[b]pyran-2-one], at HIV-1 protease [1] (Table I, Dose 0.123 μM), the inhibition at 0.123 µM came out at 75.7%. For the same molecule, the inhibition at 0.37 µM at HIV-1 protease [1] (Table I, Dose 0.370 μM) was 87.2%. The inhibition at 1.1 µM at HIV-1 protease [1] (Table I, Dose 1.100 μM) was 91.8%. Besides, on HIV-1 protease [1] (Table I, Dose 3.300 μM), the inhibition at 3.3 µM turned out to be 91.1%. For the same molecule, the inhibition at 10 µM at HIV-1 protease [1] (Table I, Dose 10.000 μM) amounted to 94.7%. On HIV-1 protease [1] (Table I, Dose 30.000 μM), the inhibition at 30 µM was found to be 95.7%. Also, the Ki at HIV-1 protease [2] (setting [3]) turned out to be 2.15 nM.

Turning to `Cc1ccc(S(=O)(=O)Cc2cccc(C(c3c(O)c4c(oc3=O)CCCCCC4)C3CC3)c2)cc1` (stereo not drawn) [Example 13, 3-[cyclopropyl[3-[(4-methylphenylsulfonyl)methyl]phenyl]methyl]-5,6,7,8,9,10-hexahydro-4-hydroxy-2H-cycloocta[b]pyran-2-one], the inhibition at 0.123 µM on HIV-1 protease [1] (Table I, Dose 0.123 μM) worked out at 68.9%. The inhibition at 0.37 µM on HIV-1 protease [1] (Table I, Dose 0.370 μM) stood at 88.1%. The inhibition at 1.1 µM on HIV-1 protease [1] (Table I, Dose 1.100 μM) came out at 94%. Besides, the inhibition at 3.3 µM at HIV-1 protease [1] (Table I, Dose 3.300 μM) turned out to be 95.5%. On HIV-1 protease [1] (Table I, Dose 10.000 μM), the inhibition at 10 µM is 98.6%. Also, at HIV-1 protease [1] (Table I, Dose 30.000 μM), the inhibition at 30 µM was 104%. Also, at HIV-1 protease [2] (setting [3]), the Ki turned out to be 4.15 nM.
